Our source for the EC50 and Emax values is patent US9834542B2, “LXR modulators” (BRISTOL-MYERS SQUIBB COMPANY, priority 2013, dated 2017).

A word on the EC50: it is the concentration needed to bring the measured effect to its halfway point.

The target in the experiment is T1, LXRβ (Homo sapiens, UniProt P55055).
T1 construct: Co-transfection expression plasmids, comprising full-length LXRα (pCMX-h LXRα[…] or LXRβ (pCMX-hLXRβ)); expressed in transfected cells; host or cells: CV-1 African Green Monkey Kidney Cells
T1 sequence (P55055 1-460): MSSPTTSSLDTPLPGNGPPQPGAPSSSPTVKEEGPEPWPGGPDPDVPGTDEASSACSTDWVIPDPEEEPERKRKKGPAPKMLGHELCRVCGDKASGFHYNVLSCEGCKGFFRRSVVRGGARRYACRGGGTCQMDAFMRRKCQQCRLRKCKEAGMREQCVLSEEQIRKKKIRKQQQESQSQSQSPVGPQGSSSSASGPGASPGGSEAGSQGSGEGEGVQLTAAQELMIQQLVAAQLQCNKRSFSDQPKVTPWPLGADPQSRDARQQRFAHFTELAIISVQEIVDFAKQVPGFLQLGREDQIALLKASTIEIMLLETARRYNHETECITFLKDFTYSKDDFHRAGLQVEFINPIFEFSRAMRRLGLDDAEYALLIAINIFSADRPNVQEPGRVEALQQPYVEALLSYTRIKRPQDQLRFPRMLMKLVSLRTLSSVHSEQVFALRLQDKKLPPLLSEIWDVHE
T1 sequence (P19793 1-462 partner): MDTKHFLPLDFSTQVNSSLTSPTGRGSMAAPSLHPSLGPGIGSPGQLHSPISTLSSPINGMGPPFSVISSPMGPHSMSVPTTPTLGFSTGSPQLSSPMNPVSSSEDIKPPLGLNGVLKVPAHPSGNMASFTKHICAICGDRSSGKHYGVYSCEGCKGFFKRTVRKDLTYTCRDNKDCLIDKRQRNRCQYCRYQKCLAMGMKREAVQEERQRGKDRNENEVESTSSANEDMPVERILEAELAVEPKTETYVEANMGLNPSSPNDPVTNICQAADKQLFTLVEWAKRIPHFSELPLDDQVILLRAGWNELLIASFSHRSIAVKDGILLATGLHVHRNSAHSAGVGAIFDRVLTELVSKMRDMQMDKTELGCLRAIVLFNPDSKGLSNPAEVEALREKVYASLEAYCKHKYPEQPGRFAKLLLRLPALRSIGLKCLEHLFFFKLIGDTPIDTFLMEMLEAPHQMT
The experiment is described as follows: Co-transfection assay (LXRE luciferase reporter), LXRβ. The format is cell-based. The following applies: for EC50: CV-1 cells transfected with pCMX-hLXRβ and LXREx1-Tk-Luciferase, 20 hours incubation; for Emax: LXRβ co-transfection, relative to high control 1-(2,4-difluorobenzyl)-2-oxo-6-(4-phenoxyphenyl)-4-(trifluoromethyl)-1,2-dihydropyridine-3-carbonitrile, read-out: % Efficacy. The essentials:
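CV-1 cells transiently co-transfected with full-length human LXRβ (or LXRα), LXREx1-Tk-luciferase reporter and β-galactosidase control; compound added (10 μM final in single-point, 11-point ½-log curves, ≤0.5% DMSO) for 20 h at 37 °C. Luciferase read; EC50 from four-parameter fit, efficacy relative to reference agonist high control.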
In general terms: In a reporter assay the amount or activity of a reporter protein is the signal.

Consider `Cc1nc(-c2ccc(OC(F)(F)F)cc2)c(-c2cc(-c3cccc(S(C)(=O)=O)c3)ccc2-n2cc(C(F)(F)F)nc2C)o1` [Example 604, 2-methyl-5-(4-(2-methyl-4-(trifluoromethyl)-1H-imidazol-1-yl)-3′-(methylsulfonyl)-[1,1′-biphenyl]-3-yl)-4-(4-(trifluoromethoxy)phenyl)oxazole], for which a half-maximal effect (EC50) was put at 54 nM and the Emax was determined as 86%.

In the case of `Cc1nc(-c2ccc(Cl)cc2)c(-c2cc(-c3cccc(S(C)(=O)=O)c3)ccc2-n2cc(C(F)(F)F)nc2C)o1` [Example 605, 4-(4-chlorophenyl)-2-methyl-5-(4-(2-methyl-4-(trifluoromethyl)-1H-imidazol-1-yl)-3′-(methylsulfonyl)-[1,1′-biphenyl]-3-yl)oxazole], a half-maximal response (EC50) required 91 nM and the Emax is 89%.

`Cc1nc(-c2ccc(Cl)cc2)c(-c2cc(-c3cc(F)c(CO)c(S(C)(=O)=O)c3)ccc2-n2cc(C(F)(F)F)nc2C)o1` [Example 606, (3′-(4-(4-chlorophenyl)-2-methyloxazol-5-yl)-3-fluoro-4′-(2-methyl-4-(trifluoromethyl)-1H-imidazol-1-yl)-5-(methylsulfonyl)-[1,1′-biphenyl]-4-yl)methanol]: it took 52 nM to reach a half-maximal effect (EC50) and the Emax was 79%.

With `Cc1nc(-c2ccc(OC(F)(F)F)cc2)c(-c2cc(-c3ccc(CO)c(S(C)(=O)=O)c3)ccc2-n2cc(C(F)(F)F)nc2C)o1` [Example 607, (3′-(2-methyl-4-(4-(trifluoromethoxy)phenyl)oxazol-5-yl)-4′-(2-methyl-4-(trifluoromethyl)-1H-imidazol-1-yl)-3-(methylsulfonyl)-[1,1′-biphenyl]-4-yl)methanol], the EC50 came to 46 nM and the Emax stood at 92%.

For the compound `Cc1nc(-c2ccc(Cl)cc2Cl)c(-c2cc(-c3cccc(S(C)(=O)=O)c3)ccc2-n2cc(C(F)(F)F)nc2C)o1` [Example 608, 4-(2,4-dichlorophenyl)-2-methyl-5-(4-(2-methyl-4-(trifluoromethyl)-1H-imidazol-1-yl)-3′-(methylsulfonyl)-[1,1′-biphenyl]-3-yl)oxazole], a half-maximal effect (EC50) was put at 90 nM and the Emax is 100%.

Consider `Cc1nc(-c2ccc(Cl)cc2Cl)c(-c2cc(-c3cc(F)c(CO)c(S(C)(=O)=O)c3)ccc2-n2cc(C(F)(F)F)nc2C)o1` [Example 609, (3′-(4-(2,4-dichlorophenyl)-2-methyloxazol-5-yl)-3-fluoro-4′-(2-methyl-4-(trifluoromethyl)-1H-imidazol-1-yl)-5-(methylsulfonyl)-[1,1′-biphenyl]-4-yl)methanol], for which the EC50 amounted to 36 nM and the Emax was determined as 91%.

Turning to `Cc1nc(C(F)(F)F)cn1-c1ccc(-c2cccc(S(C)(=O)=O)c2)cc1-c1oc(CC(=O)O)nc1-c1ccc(OC(F)(F)F)cc1` [Example 610, 2-(5-(4-(2-methyl-4-(trifluoromethyl)-1H-imidazol-1-yl)-3′-(methylsulfonyl)-[1,1′-biphenyl]-3-yl)-4-(4-(trifluoromethoxy)phenyl)oxazol-2-yl)acetic acid], the EC50 turned out to be 257 nM and the Emax was determined as 94%.

Regarding `Cc1nc(C(F)(F)F)cn1-c1ccc(-c2cccc(S(C)(=O)=O)c2)cc1-c1oc(CCO)nc1-c1ccc(OC(F)(F)F)cc1` [Example 611, 2-(5-(4-(2-methyl-4-(trifluoromethyl)-1H-imidazol-1-yl)-3′-(methylsulfonyl)-[1,1′-biphenyl]-3-yl)-4-(4-(trifluoromethoxy)phenyl)oxazol-2-yl)ethanol], the EC50 is 554 nM and the Emax is 62%.

Consider `Cc1nc(C(F)(F)F)cn1-c1ccc(-c2cc(F)c(CO)c(S(C)(=O)=O)c2)cc1-c1oc(CCO)nc1-c1ccc(OC(F)(F)F)cc1` [Example 612, 2-(5-(3′-fluoro-4′-(hydroxymethyl)-4-(2-methyl-4-(trifluoromethyl)-1H-imidazol-1-yl)-5′-(methylsulfonyl)-[1,1′-biphenyl]-3-yl)-4-(4-(trifluoromethoxy)phenyl)oxazol-2-yl)ethanol], for which the EC50 came out at 517 nM and the Emax was found to be 64%.

For the compound `Cc1nc(C(F)(F)F)cn1-c1ccc(-c2ccc(CO)c(S(C)(=O)=O)c2)cc1-c1oc(CCO)nc1-c1ccc(OC(F)(F)F)cc1` [Example 613, 2-(5-(4′-(hydroxymethyl)-4-(2-methyl-4-(trifluoromethyl)-1H-imidazol-1-yl)-3′-(methylsulfonyl)-[1,1′-biphenyl]-3-yl)-4-(4-(trifluoromethoxy)phenyl)oxazol-2-yl)ethanol], the half-maximal effective concentration (EC50) came to 1160 nM and the Emax is 62%.

With `Cc1nc(-c2ccc(Cl)cc2Cl)c(-c2cc(-c3ccc(CO)c(S(C)(=O)=O)c3)ccc2-n2cc(C(F)(F)F)nc2C)o1` [Example 614, (3′-(4-(2,4-dichlorophenyl)-2-methyloxazol-5-yl)-4′-(2-methyl-4-(trifluoromethyl)-1H-imidazol-1-yl)-3-(methylsulfonyl)-[1,1′-biphenyl]-4-yl)methanol], the midpoint of the response, the EC50, lay at 47 nM and the Emax worked out at 103%.

Regarding `Cc1nc(-c2ccc3c(c2)OC(F)(F)O3)c(-c2cc(-c3cccc(S(C)(=O)=O)c3)ccc2-n2cc(C(F)(F)F)nc2C)o1` [Example 615, 4-(2,2-difluorobenzo[d][1,3]dioxol-5-yl)-2-methyl-5-(4-(2-methyl-4-(trifluoromethyl)-1H-imidazol-1-yl)-3′-(methylsulfonyl)-[1,1′-biphenyl]-3-yl)oxazol], the EC50 was 31 nM and the Emax was 96%.

On to `Cc1nc(-c2ccc3c(c2)OC(F)(F)O3)c(-c2cc(-c3ccc(CO)c(S(C)(=O)=O)c3)ccc2-n2cc(C(F)(F)F)nc2C)o1` [Example 616, (3′-(4-(2,2-difluorobenzo[d][1,3]dioxol-5-yl)-2-methyloxazol-5-yl)-4′-(2-methyl-4-(trifluoromethyl)-1H-imidazol-1-yl)-3-(methylsulfonyl)-[1,1′-biphenyl]-4-yl)methanol], for which a half-maximal response (EC50) required 45 nM and the Emax came to 96%.

For the compound `Cc1nc(-c2ccc3c(c2)OC(F)(F)O3)c(-c2cc(-c3cc(F)c(CO)c(S(C)(=O)=O)c3)ccc2-n2cc(C(F)(F)F)nc2C)o1` [Example 617, (3′-(4-(2,2-difluorobenzo[d][1,3]dioxol-5-yl)-2-methyloxazol-5-yl)-3-fluoro-4′-(2-methyl-4-(trifluoromethyl)-1H-imidazol-1-yl)-5-(methylsulfonyl)-[1,1′-biphenyl]-4-yl)methanol], the concentration for a half-maximal effect (EC50) is 37 nM and the Emax came out at 84%.

In the case of `Cc1nc(C(F)(F)F)cn1-c1ccc(-c2cccc(S(C)(=O)=O)c2)cc1-c1oc(CCO)nc1-c1ccc(Cl)cc1` [Example 618, 2-(4-(4-chlorophenyl)-5-(4-(2-methyl-4-(trifluoromethyl)-1H-imidazol-1-yl)-3′-(methylsulfonyl)-[1,1′-biphenyl]-3-yl)oxazol-2-yl)ethanol], the midpoint of the response, the EC50, lay at 783 nM and the Emax turned out to be 66%.

Consider `Cc1nc(-c2ccc(OC(F)F)cc2)c(-c2cc(-c3cccc(S(C)(=O)=O)c3)ccc2-n2cc(C(F)(F)F)nc2C)o1` [Example 619, 4-(4-(difluoromethoxy)phenyl)-2-methyl-5-(4-(2-methyl-4-(trifluoromethyl)-1H-imidazol-1-yl)-3′-(methylsulfonyl)-[1,1′-biphenyl]-3-yl)oxazole], for which the EC50 amounted to 51 nM and the Emax turned out to be 112%.

On to `Cc1nc(C(F)(F)F)cn1-c1ccc(-c2cccc(S(C)(=O)=O)c2)cc1-c1oc(CCN2CCCC2)nc1-c1ccc(OC(F)(F)F)cc1` [Example 620, 5-(4-(2-methyl-4-(trifluoromethyl)-1H-imidazol-1-yl)-3′-(methylsulfonyl)-[1,1′-biphenyl]-3-yl)-2-(2-(pyrrolidin-1-yl)ethyl)-4-(4-(trifluoromethoxy)phenyl)oxazole], for which the EC50 was 202 nM and the Emax is 94%.

Regarding `Cc1nc(C(F)(F)F)cn1-c1ccc(-c2cc(F)c(CO)c(S(C)(=O)=O)c2)cc1-c1oc(CCO)nc1-c1ccc2c(c1)OC(F)(F)O2` [Example 621, 2-(4-(2,2-difluorobenzo[d][1,3]dioxol-5-yl)-5-(3′-fluoro-4′-(hydroxymethyl)-4-(2-methyl-4-(trifluoromethyl)-1H-imidazol-1-yl)-5′-(methylsulfonyl)-[1,1′-biphenyl]-3-yl)oxazol-2-yl)ethanol], it took 790 nM to reach a half-maximal effect (EC50) and the Emax stood at 81%.
